Laboratory results published in patent US20250127788A1, “PHARMACEUTICAL COMPOSITION CONTAINING TRIAZINE DERIVATIVE” (Shionogi & Co., Ltd., priority 2021, published 2025).
Where two headings read alike, the source gives them in different places.

Key:
[1] = target: Recombinant SARS-CoV-2 3CL Protease (Severe acute respiratory syndrome coronavirus 2 (2019-nCoV) (SARS-CoV-2), UniProt P0DTD1); test: Test Example 2: inhibitory activity test against SARS-CoV-2 3CL protease; format: biochemical; settings: class symbols
SARS-CoV-2 [2] = test: microbe, parasite or virus in culture; format: cell-based; settings: Severe acute respiratory syndrome coronavirus 2, 72 h; VeroE6/TMPRSS2 cells, 3 days; class symbols
[3] = test system: SARS-CoV-2 hCoV-19/Japan/TY7-501/2021; test: Test Example 9: influence of human serum and mouse serum on anti-SARS-CoV-2 activity; format: cell-based; settings: Severe acute respiratory syndrome coronavirus 2, serum 100% condition by linear regression
SARS-CoV Hanoi strain = test: microbe, parasite or virus in culture; settings: Severe acute respiratory syndrome coronavirus, VeroE6/TMPRSS2, 72 h, read-out: EC50 (50% virus infected cell death inhibitory concentration)
SARS-CoV-2 [4] = test: microbe, parasite or virus in culture; format: cell-based; settings: Severe acute respiratory syndrome coronavirus 2, HEK-293T; HEK293T/ACE2-TMPRSS2 cells; strains WK-521, QK002, TY7-501, TY8-612, TY11-927-P1
HCoV-OC43 = test: microbe, parasite or virus in culture; settings: Betacoronavirus 1, OC43, MRC5, 42 h, read-out: EC90 (90% HCoV-OC43 viral replication inhibitory concentration)
in vitro = settings: human
[5] = test system: SARS-CoV-2 hCoV19/Japan/TY11-927/2021 strain; parameters: species or system Syrian hamsters; settings: in vivo
[6] = test system: SARS-CoV-2 hCoV19/Japan/TY11-927/2021 strain; format: in vivo, Syrian hamsters; settings: 6 days after start
HCoV-229E = test: Test Example 8: antiviral effect on HCoV-229E (MRC-5 cells, CellTiter-Glo); format: cell-based; settings: Human coronavirus 229E, MRC5, read-out: EC50 (50% HCoV-229E infected cell death inhibitory concentration), 72 hours
Description: Test Example 8: Antiviral Effect on HCoV-229E
The test sample is preliminarily diluted with DMSO to an appropriate concentration, and a 3-fold serial dilution series is prepared and then dispensed into a 96-well plate and diluted in a maintenance medium (MEM, 2% FBS, penicillin-streptomycin).
MRC-5 cells (2×10^4 cells/well) suspended in a subculture medium (DMEM, 10% FBS, penicillin-streptomycin) are seeded in a 96-well plate a day before infection, and the next day, HCoV-229E (1000 TCID50/well) suspended in a maintenance medium (MEM, 2% FBS, penicillin-streptomycin) is infected for 1 hour. Thereafter, virus fluid is removed, a maintenance medium including a test reagent is added, and culturing is carried out in a CO2 incubator for 72 hours. Furthermore, in order to examine cytotoxicity of the test reagent, the same operation is performed in the absence of virus.
After returning the plate cultured for 72 hours to room temperature, CellTiter-Glo (registered trademark) 2.0 is dispensed into each well and mixed with a plate mixer. After a certain time interval, the luminescence signal (Lum) is measured with a plate reader.
When x is taken as the logarithmic value of the compound concentration and y as % Efficacy, the inhibition curve is approximated by the following Logistic regression equation, and the value of x when substituting 50(%) for y is calculated as EC50.
[formula] […]

[7] = test system: SARS-CoV-2 Omicron Strain; test: Test Example 1-3: CPE suppression in Vero E6/TMPRSS2 cells, Omicron strains; format: cell-based
[8] = test system: SARS-CoV-2 hCoV-19/Japan/TY38-873/2021; test: Test Example 10-2: CPE suppression in HEK293T/ACE2-TMPRSS2 cells (TY38-873); format: cell-based; settings: Severe acute respiratory syndrome coronavirus 2, HEK-293T
[9] = test system: SARS-CoV-2 hCoV19/Japan/TY11-927/2021 strain; format: in vivo, Syrian hamsters; settings: 3 days after start of living together
[10] = target: SARS-CoV-2 3CL Protease WT (Severe acute respiratory syndrome coronavirus 2 (2019-nCoV) (SARS-CoV-2), UniProt P0DTD1); test: biochemical; settings: read-out: EC50 (table head; method calculates IC50)

Row | SMILES | IC50 [1] [nM] | EC50 (SARS-CoV-2 [2]) [nM] | also measured
1 | Cc1cc2nn(C)cc2cc1Nc1nc(=O)n(-c2cncc3ccccc23)c(=O)n1Cc1ccc(F)c(C#N)c1 [Compound I-027] | < 100 | < 1000 | –
2 | Cn1cc2cc(Nc3nc(=O)n(-c4cncc5ccccc45)c(=O)n3Cc3cc(F)c(F)c(F)c3)ccc2n1 [Compound I-016] | < 100 | < 1000 | –
3 | Cn1cnc(Cn2c(=O)[nH]/c(=N\c3cc4cn(C)nc4cc3Cl)n(Cc3cc(F)c(F)cc3F)c2=O)n1 | – | – | EC50 ([3]; human serum, read-out: human serum PA-EC50 (protein-adjusted EC50)): 3020 nM; EC50 ([3]; mouse serum, read-out: mouse serum PA-EC50 (protein-adjusted EC50)): 3930 nM; EC50 (SARS-CoV Hanoi strain): 209 nM; EC50 (SARS-CoV-2 [4]): 26 to 58 nM; EC90 (HCoV-OC43): 74 nM; CC50 (in vitro): > 200000 nM; lung virus titer of uninfected hamsters co-housed with treated infected hamster [5]: the detection limit value or less; lung virus titer of administered hamsters co-housed with infected hamster ([6]; 30 mg/kg oral twice a day for six days): 3.48 log10 PFU50/mL; lung virus titer of administered hamsters co-housed with infected hamster ([6]; 200 mg/kg oral twice a day for six days): a detection limit value or less; EC50 (HCoV-229E): 5530 nM; EC50 ([7]; Severe acute respiratory syndrome coronavirus 2, VeroE6/TMPRSS2, Omicron TY38-871 (BA.1.1)): 360 nM; EC50 ([7]; Severe acute respiratory syndrome coronavirus 2, VeroE6/TMPRSS2, Omicron TY38-873 (BA.1)): 290 nM; EC50 ([7]; Severe acute respiratory syndrome coronavirus 2, VeroE6/TMPRSS2, Omicron TY40-385 (BA.2)): 520 nM; EC50 ([7]; Severe acute respiratory syndrome coronavirus 2, VeroE6/TMPRSS2, Omicron TY41-686 (XE)): 440 nM; EC50 ([7]; Severe acute respiratory syndrome coronavirus 2, VeroE6/TMPRSS2, Omicron TY41-702 (BA.5)): 400 nM; EC50 ([7]; Severe acute respiratory syndrome coronavirus 2, VeroE6/TMPRSS2, Omicron TY41-703 (BA.4)): 220 nM; EC50 ([7]; Severe acute respiratory syndrome coronavirus 2, VeroE6/TMPRSS2, Omicron TY41-716 (BA.2.75)): 300 nM; EC50 [8]: 83 nM; intranasal concha virus titer of uninfected hamster co-housed with treated infected hamster [9]: 2.89 log10 TCID50/mL; lung virus titer of uninfected hamster co-housed with treated infected hamster [9]: 2.97 log10 TCID50/mL
4 | Cc1cncc(-n2c(=O)nc(Nc3cc4cn(C)nc4cc3F)n(Cc3ccc(F)c(C#N)c3)c2=O)c1 [Compound I-018] | < 100 | < 1000 | –
5 | O=c1nc(Nc2ccc3nn(CC(F)F)cc3c2)n(Cc2cc(F)c(F)c(F)c2)c(=O)n1-c1cncc2ccccc12 [Compound I-034] | < 100 | < 1000 | –
6 | Cc1cncc(-n2c(=O)nc(Nc3ccc4nn(CC(F)F)cc4c3)n(Cc3ccc(F)c(C#N)c3)c2=O)c1 [Compound I-011] | < 100 | < 1000 | –
7 | Cn1cc2cc(Nc3nc(=O)n(-c4cncc5ccccc45)c(=O)n3Cc3ccc(F)c(C#N)c3)c(Cl)cc2n1 [Compound I-015] | < 100 | < 1000 | –
8 | Cn1cc2cc(Nc3nc(=O)n(-c4cncc5ccccc45)c(=O)n3Cc3ccc(F)c(C#N)c3)c(F)cc2n1 [Compound I-025] | < 100 | < 1000 | –
9 | Cc1nc2cc(Cl)c(Nc3nc(=O)n(-c4cncc5ccccc45)c(=O)n3Cc3cc(F)c(F)c(F)c3)cc2n1C [Compound I-032] | < 100 | 1000 to 10000 | –
10 | O=c1nc(Nc2cc3cn(CCN4CCOCC4)nc3cc2Cl)n(Cc2cc(F)c(F)c(F)c2)c(=O)n1-c1cncc2ccccc12 [Compound I-020] | < 100 | 1000 to 10000 | –
11 | Cc1cncc(-n2c(=O)nc(Nc3cc4cn(C)nc4cc3Cl)n(Cc3cc(F)c(F)c(F)c3)c2=O)c1 | – | – | IC50 [10]: 16.7 nM
12 | Cn1cnc(Cn2c(=O)nc(Nc3cc4cn(C(F)F)nc4cc3Cl)n(Cc3cc(F)c(F)c(F)c3)c2=O)n1 [Compound I-030] | < 100 | 1000 to 10000 | –
13 | Cc1cncc(-n2c(=O)nc(Nc3cc4cn(C)nc4cc3C)n(Cc3cc(F)c(F)c(F)c3)c2=O)c1 [Compound I-004] | < 100 | 1000 to 10000 | –
14 | Cc1cc2nn(C)cc2cc1Nc1nc(=O)n(-c2cncc3ccccc23)c(=O)n1Cc1cc(F)c(F)c(F)c1 [Compound I-013] | < 100 | 1000 to 10000 | –
15 | Cn1cnc(Cn2c(=O)nc(Nc3cc4cn(CC(F)F)nc4cc3Cl)n(Cc3cc(F)c(F)c(F)c3)c2=O)n1 [Compound I-029] | < 100 | < 1000 | –
16 | CC(=O)NCCn1cc2cc(Nc3nc(=O)n(-c4cncc5ccccc45)c(=O)n3Cc3cc(F)c(F)c(F)c3)c(Cl)cc2n1 [Compound I-033] | < 100 | 1000 to 10000 | –
17 | CC(=O)N1CC(n2cc3cc(Nc4nc(=O)n(-c5cncc6ccccc56)c(=O)n4Cc4cc(F)c(F)c(F)c4)c(Cl)cc3n2)C1 [Compound I-007] | < 100 | – | –
18 | Cc1nc2cc(Cl)c(Nc3nc(=O)n(Cc4ncn(C)n4)c(=O)n3Cc3cc(F)c(F)c(F)c3)cc2n1C [Compound I-022] | < 100 | 1000 to 10000 | –
19 | Cc1nc2cc(C)c(Nc3nc(=O)n(Cc4c[nH]cn4)c(=O)n3Cc3cc(F)c(F)c(F)c3)cc2s1 [Compound I-001] | 1000 to 10000 | – | –
20 | Cc1cncc(-n2c(=O)nc(Nc3cc4cn(C)nc4cc3C)n(Cc3ccc(F)c(C#N)c3)c2=O)c1 [Compound I-019] | < 100 | < 1000 | –
21 | Cc1cncc(-n2c(=O)nc(Nc3cc4cn(C)nc4cc3F)n(Cc3cc(F)c(F)c(F)c3)c2=O)c1 [Compound I-002] | < 100 | < 1000 | –
22 | Cn1cc2cc(Nc3nc(=O)n(-c4cncc(CO)c4)c(=O)n3Cc3cc(F)c(F)c(F)c3)ccc2n1 [Compound I-008] | 100 to 1000 | – | –
23 | Cn1cc2cc(Nc3nc(=O)n(-c4cncc5ccccc45)c(=O)n3Cc3cc(F)c(F)c(F)c3)c(Cl)cc2n1 [Compound I-014] | < 100 | < 1000 | –
24 | Cn1cnc(Cn2c(=O)nc(Nc3cc4cn(C)nc4cc3Cl)n(Cc3cc(F)c(F)c(F)c3)c2=O)n1 [Compound I-021] | < 100 | < 1000 | –
25 | Cc1cncc(-n2c(=O)nc(Nc3cc4cn(C(F)F)nc4cc3Cl)n(Cc3ccc(F)c(C#N)c3)c2=O)c1 [Compound I-026] | < 100 | < 1000 | –
26 | Cn1cnc(Cn2c(=O)nc(Nc3cc4cn(CCO)nc4cc3Cl)n(Cc3cc(F)c(F)c(F)c3)c2=O)n1 [Compound I-028] | < 100 | 1000 to 10000 | –
27 | N#Cc1cc(Cn2c(Nc3cc4cn(C(F)F)nc4cc3Cl)nc(=O)n(-c3cncc4ccccc34)c2=O)ccc1F [Compound I-024] | < 100 | < 1000 | –
28 | N#Cc1cc(Cn2c(Nc3ccc4nn(CC(F)F)cc4c3)nc(=O)n(-c3cncc4ccccc34)c2=O)ccc1F [Compound I-009] | < 100 | < 1000 | –
